From patent US20260364184A1, “COMPOUND BASED ON OXOISOINDOLINYL-SUBSTITUTED TETRAHYDROPYRIMIDINE-DIONE AND USE THEREOF” (GLUETACS THERAPEUTICS (SHANGHAI) CO., LTD., priority 2023, published 2026)

How the values were obtained:
EGFR = biological target: T1, EGFR (Homo sapiens, UniProt P00533); test: Western blot degradation of EGFR; format: cell-based; settings: H1975 Cell; 24 hours
T1 construct: L858R/T790M in cis, heterozygous with wild type), Western blot
Description: Conventional Western blot assay was performed to evaluate the effects of the compounds of the present disclosure on the expression of target proteins in cells.
(1) Cell Seeding and Protein Harvesting: The selected cells were processed according to the cell seeding procedure and protein harvesting procedure in Table II-2.
(2) To the collected supernatant, 5×SDS sample loading buffer was added, followed by denaturation at 95 °C for 5 minutes. The denatured samples were then separated by SDS-PAGE electrophoresis on a polyacrylamide gel. Proteins were transferred to a nitrocellulose membrane (0.45 μm NC membrane), blocked with blocking buffer at room temperature for 1 hour, and subjected to antibody incubation and development procedures according to the antibody manufacturer's instructions (Cell Signaling Technology).
Half-Maximal Degradation Concentration value (the drug concentration required for degrading proteins by 50%, abbreviated as DC50) reads method: comparing the grayscale values of Western blot bands from drug-treated samples with those from blank DMSO-treated controls, and identifying the drug concentration range at which the grayscale value is half that of the DMSO-treated control bands.
DC50 values can be calculated using ImageJ software to measure grayscale values of Western blot bands from drug-treated samples. The concentration-response curve is fitted to estimate the drug concentration corresponding to half the grayscale value.
Target protein remaining (%) refers to the percentage of target protein remaining in cells after treatment with protein degrader compounds.
Calculation method for target protein remaining (%): Use ImageJ software to measure grayscale values of Western blot bands from drug (protein degrader)-treated samples. The grayscale value of drug-treated bands is divided by that of internal control protein bands, and the resulting quotient is normalized to obtain the relative percentage of remaining target protein after protein degrader treatment.
Target protein degradation rate (%)=1−target protein remaining (%).

[1] = test system: Human neuroblastoma cell line (SK-N-AS); test: Inhibition of SK-N-AS cell proliferation (CellTiter luminescent viability); format: cell-based; settings: Table II2, EZH2 inhibitor-based, 96 hours; for inhibition at 0.01 µM: 10 nM, read-out: Inhibition Rate at 10 nM (%); for inhibition at 0.5 µM: 500 nM, read-out: Inhibition Rate at 500 nM (%)
Description: (§1) The tumor cells used herein were cultured in a cell culture medium listed in table 3 at 37 °C in an incubator with 5% CO2. Prior to experimentation, all cell lines used were correctly identified by STR profiling, and tested negative for mycoplasma contamination using a mycoplasma detection kit through routine screenings.
(§2) The IC50 values of the compounds of the present disclosure (including the compounds in Table 1, Table 2, and Examples 1-468) were determined using the CellTiter-Meiluncell Luminescent Cell Viability Assay Kit from Dalian Meilun Biotech Co., Ltd. The detailed procedure is as follows: Tumor cells were seeded in 96-well cell culture plates at the densities specified in Table 4. On the following day, the test compounds of the present disclosure were subjected to serial dilution. The dilution can be performed according to one of the following two methods: • (1) The first dilution method: The test compounds of the present disclosure (including the compounds in Table 1, Table 2, and Examples 1-468) were subjected to 5-fold serial dilutions starting from a highest concentration of 2000 μM, resulting in a total of 9 concentrations from high to low (2000, 400, 80, 16, 3.2, 0.64, 0.128, 0.0256, 0.00512 μM). Subsequently, 0.5 μL of the test compound dilution was transferred into the 96-well plate containing the cells, with each well containing 100 μL of cell culture medium. […] Into the 96-well plate, the diluted test compounds and corresponding detection reagents were added, resulting in final test compound concentrations of 500 nM and 10 nM, respectively. The experimental procedure is described below using the diluted 2 μM test compound as an example.
(§3) 0.5 μL of the aforementioned diluted compound of the present disclosure (including the compounds in Table 1, Table 2, and Examples 1-468) was added to the seeded cells in 100 μL of medium, yielding a final test compound concentration of 10 nM. After the cells were treated with the compounds of the present disclosure for a specified period, the cell viability assay reagent was added to the culture medium according to the kit's instructions to determine cell viability. […] All controls were treated using the same procedure as the compounds of the present disclosure. The growth inhibition curves for the compounds of the present disclosure were plotted using Prism GraphPad software, and the IC50 values were calculated therefrom.

[2] = biological target: T2, human Cereblon WT GST-tagged protein (CRBN) (Homo sapiens, UniProt Q96SW2); test: CRBN binding by HTRF (Cereblon binding kit)
T2 construct: purchased CISBIO 64BDCRBNPEH
T2 sequence (Q96SW2 whole entry): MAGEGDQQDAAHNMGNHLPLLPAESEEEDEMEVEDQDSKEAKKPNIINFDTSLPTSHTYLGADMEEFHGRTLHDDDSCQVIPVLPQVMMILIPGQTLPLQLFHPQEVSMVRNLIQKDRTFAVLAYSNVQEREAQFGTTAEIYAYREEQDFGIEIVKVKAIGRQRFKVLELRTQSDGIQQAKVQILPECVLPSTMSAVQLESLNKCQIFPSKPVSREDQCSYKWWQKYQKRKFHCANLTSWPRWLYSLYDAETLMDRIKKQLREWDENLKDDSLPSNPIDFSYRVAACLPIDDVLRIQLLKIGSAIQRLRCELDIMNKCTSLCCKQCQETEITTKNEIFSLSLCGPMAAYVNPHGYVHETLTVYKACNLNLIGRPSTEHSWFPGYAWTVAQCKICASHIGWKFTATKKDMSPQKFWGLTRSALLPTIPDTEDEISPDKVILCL
Outline: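 GST-tagged human Cereblon WT was incubated 3 h at room temperature with compound, thalidomide-Re tracer and Eu anti-GST antibody. Final compound concentrations were 10 to 0.00064 µM (7 points) or 2 and 0.5 µM. Inhibition rate was calculated from HTRF 665/620 nm ratios versus solvent and blank controls.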

CDK6 = biological target: T3, CDK6 (Homo sapiens, UniProt Q00534+Q96SW2); test: Western blot degradation of CDK6; format: cell-based; settings: MDA-MB-231 Cell; 24 hours
T3 construct: expression of target proteins in cells; endogenous in cells
T3 sequence (Q00534 whole entry): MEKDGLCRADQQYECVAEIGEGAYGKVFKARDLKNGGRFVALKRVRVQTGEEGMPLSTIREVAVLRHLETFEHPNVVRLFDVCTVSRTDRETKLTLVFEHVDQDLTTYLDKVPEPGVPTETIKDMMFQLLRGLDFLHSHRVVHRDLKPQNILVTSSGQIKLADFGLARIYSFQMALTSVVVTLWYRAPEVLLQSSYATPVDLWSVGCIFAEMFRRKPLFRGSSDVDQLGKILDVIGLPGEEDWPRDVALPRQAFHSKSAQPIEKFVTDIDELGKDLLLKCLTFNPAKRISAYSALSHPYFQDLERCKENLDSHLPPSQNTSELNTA
T3 sequence (Q96SW2 whole entry): as the sequence (Q96SW2 whole entry) above
T3 sequence (Q16531 whole entry partner): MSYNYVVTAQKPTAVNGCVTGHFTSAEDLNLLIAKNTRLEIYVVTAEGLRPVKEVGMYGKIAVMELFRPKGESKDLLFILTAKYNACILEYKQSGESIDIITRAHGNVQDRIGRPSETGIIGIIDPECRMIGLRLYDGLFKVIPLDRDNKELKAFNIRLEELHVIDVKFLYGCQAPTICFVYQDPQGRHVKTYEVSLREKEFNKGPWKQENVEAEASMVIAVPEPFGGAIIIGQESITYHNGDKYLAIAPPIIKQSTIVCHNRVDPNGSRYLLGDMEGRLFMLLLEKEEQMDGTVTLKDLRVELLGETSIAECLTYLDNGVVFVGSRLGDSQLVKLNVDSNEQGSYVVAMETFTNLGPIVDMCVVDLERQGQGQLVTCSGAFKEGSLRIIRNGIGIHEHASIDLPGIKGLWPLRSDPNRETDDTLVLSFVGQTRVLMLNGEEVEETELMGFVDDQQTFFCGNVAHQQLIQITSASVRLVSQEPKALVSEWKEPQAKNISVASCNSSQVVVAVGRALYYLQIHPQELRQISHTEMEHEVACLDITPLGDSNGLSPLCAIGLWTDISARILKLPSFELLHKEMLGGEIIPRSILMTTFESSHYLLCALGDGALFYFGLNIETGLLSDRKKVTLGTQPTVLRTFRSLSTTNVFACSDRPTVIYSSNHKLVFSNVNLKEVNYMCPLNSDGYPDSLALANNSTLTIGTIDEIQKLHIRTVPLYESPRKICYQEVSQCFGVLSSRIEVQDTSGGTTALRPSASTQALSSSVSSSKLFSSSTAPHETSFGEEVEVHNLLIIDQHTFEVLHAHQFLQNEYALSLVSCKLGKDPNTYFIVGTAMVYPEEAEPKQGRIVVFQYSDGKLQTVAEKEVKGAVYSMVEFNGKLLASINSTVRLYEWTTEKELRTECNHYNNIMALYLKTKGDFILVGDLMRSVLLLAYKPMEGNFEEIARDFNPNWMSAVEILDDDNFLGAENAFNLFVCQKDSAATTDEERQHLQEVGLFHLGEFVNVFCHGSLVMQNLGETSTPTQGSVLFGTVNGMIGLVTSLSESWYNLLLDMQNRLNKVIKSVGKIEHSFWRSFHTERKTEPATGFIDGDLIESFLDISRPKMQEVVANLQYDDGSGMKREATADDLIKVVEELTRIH
Outline: (§4)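 Cells treated with compound, lysed, and target protein detected by Western blot (SDS-PAGE, nitrocellulose transfer). DC50 taken as the concentration giving band grayscale half that of DMSO control, estimated by concentration-response fitting; remaining protein (%) from target band normalised to internal control band; degradation (%) = 1 − remaining.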

[3] = test system: Human large cell immunoblastic lymphoma cell line SR; test: Inhibition of SR cell proliferation (CellTiter luminescent viability); format: cell-based; settings: Table IE1, CDK4/6 inhibitor-based, 96 hours, read-out: Inhibitory activity (IC50, nM) on tumor cell proliferation, SR
Description: as §1, §2, §3

[4] = test system: Human myeloid monocytic leukemia cell line (MV-4-11); test: Inhibition of MV-4-11 cell proliferation (CellTiter luminescent viability); format: cell-based; settings: Table IE1, CDK4/6 inhibitor-based; MV-4-11, 96 hours; read-out: Inhibitory activity (IC50, nM) on tumor cell proliferation, MV-4-11
Outline: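 Cells are seeded in 96-well plates, cultured at 37 °C, 5% CO2, and treated next day with 5-fold serial compound dilutions (stock series from 2000 μM; 0.5 μL into 100 μL medium). Viability is read by CellTiter-Meiluncell luminescence after the set exposure, and IC50 is taken from growth-inhibition curves.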

CDK4 = biological target: T4, CDK4 (Homo sapiens, UniProt P11802+Q96SW2); test: Western blot degradation of CDK4; format: cell-based; settings: MDA-MB-231 Cell; 24 hours
T4 construct: expression of target proteins in cells; endogenous in cells
T4 sequence (P11802 whole entry): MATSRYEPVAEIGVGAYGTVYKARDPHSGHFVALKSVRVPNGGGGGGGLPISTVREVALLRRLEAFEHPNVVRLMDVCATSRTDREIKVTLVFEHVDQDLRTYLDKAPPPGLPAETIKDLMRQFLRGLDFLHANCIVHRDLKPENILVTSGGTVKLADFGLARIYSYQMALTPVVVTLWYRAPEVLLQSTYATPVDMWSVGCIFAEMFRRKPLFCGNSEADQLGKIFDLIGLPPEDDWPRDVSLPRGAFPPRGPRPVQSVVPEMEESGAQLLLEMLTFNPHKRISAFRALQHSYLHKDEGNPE
T4 sequence (Q96SW2 whole entry): as the sequence (Q96SW2 whole entry) above
T4 sequence (Q16531 whole entry partner): as the sequence (Q16531 whole entry partner) above
Outline: as §4

T1 sequence (P00533 25-1210): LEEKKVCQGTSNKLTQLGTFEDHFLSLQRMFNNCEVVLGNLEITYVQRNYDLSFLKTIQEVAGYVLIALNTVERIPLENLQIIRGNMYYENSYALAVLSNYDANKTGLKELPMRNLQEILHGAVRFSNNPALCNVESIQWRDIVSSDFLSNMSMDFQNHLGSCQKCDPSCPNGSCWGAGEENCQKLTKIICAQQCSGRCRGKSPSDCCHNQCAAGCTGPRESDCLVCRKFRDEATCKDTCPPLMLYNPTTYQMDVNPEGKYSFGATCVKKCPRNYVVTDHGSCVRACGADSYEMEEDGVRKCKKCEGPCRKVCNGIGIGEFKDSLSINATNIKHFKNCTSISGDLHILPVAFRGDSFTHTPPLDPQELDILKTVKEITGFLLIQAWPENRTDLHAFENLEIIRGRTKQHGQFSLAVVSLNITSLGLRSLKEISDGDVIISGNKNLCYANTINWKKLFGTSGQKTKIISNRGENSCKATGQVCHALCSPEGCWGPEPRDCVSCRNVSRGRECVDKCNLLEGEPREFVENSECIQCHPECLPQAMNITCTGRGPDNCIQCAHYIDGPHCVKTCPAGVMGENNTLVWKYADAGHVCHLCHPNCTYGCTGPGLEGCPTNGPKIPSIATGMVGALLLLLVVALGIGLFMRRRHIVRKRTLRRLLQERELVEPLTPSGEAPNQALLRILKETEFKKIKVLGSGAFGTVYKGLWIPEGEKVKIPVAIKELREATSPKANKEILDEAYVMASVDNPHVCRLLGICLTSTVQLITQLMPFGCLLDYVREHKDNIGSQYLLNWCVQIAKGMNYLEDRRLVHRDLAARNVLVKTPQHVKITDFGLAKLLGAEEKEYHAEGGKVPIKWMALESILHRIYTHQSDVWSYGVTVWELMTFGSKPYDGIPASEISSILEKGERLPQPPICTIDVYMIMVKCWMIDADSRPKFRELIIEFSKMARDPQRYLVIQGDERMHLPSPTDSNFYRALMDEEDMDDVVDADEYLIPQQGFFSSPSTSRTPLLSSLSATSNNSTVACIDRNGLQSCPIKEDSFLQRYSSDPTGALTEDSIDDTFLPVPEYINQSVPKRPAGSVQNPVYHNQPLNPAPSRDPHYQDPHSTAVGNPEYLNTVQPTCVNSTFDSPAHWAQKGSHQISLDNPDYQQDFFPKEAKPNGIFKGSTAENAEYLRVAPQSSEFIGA
T1 sequence (Q96SW2 whole entry partner): as the sequence (Q96SW2 whole entry) above

SMILES	Degradation of substrate protein EGFR (substrate protein remaining %) (EGFR)	inhibition at 0.01 µM [1] [%]	inhibition at 0.5 µM [1] [%]	other results
CCN(c1cc(-c2ccc(CN3CCN(CC4CCN(c5cccc6c5C(=O)N(N5CCC(=O)NC5=O)C6=O)CC4)CC3)cc2)cc(C(=O)NCc2c(C)cc(C)[nH]c2=O)c1C)C1CCOCC1 [GT-08519, N-((4,6-dimethyl-2-oxo-1,2-dihydropyridin-3-yl)methyl)-4′-((4-((1-(2-(2,4-dioxotetrahydropyrimidin-1(2H)-yl)-1,3-dioxoisoindolin-4-yl)piperidin-4-yl)methyl)piperazin-1-yl)methyl)-5-(ethyl(tetrahydro-2H-pyran-4-yl)amino)-4-methyl-[1,1′-biphenyl]-3-carboxamide]	–	10 to 15	20 to 30	–
O=C1CCN(N2C(=O)c3ccc(N4CCC(CN5CCN(C6CCN(c7ccc(Nc8ncc9nc(Nc%10ccccc%10)n(C%10CCCC%10)c9n8)cc7)CC6)CC5)CC4)cc3C2=O)C(=O)N1 [GT-05955, 5-(4-((4-(1-(4-((9-cyclopentyl-8-(phenylamino)-9H-purin-2-yl)amino)phenyl)piperidin-4-yl)piperazin-1-yl)methyl)piperidin-1-yl)-2-(2,4-dioxotetrahydropyrimidin-1(2H)-yl)isoindoline-1,3-dione]	A (0%≤substrate protein remaining %≤80%)	–	–	–
CCN(c1cc(-c2ccc(N3CCN(CC4CCN(c5cccc6c5C(=O)N(N5CCC(=O)NC5=O)C6=O)CC4)CC3)cc2)cc(C(=O)NCc2c(C)cc(C)[nH]c2=O)c1C)C1CCOCC1 [GT-08521, N-((4,6-dimethyl-2-oxo-1,2-dihydropyridin-3-yl)methyl)-4′-(4-((1-(2-(2,4-dioxotetrahydropyrimidin-1(2H)-yl)-1,3-dioxoisoindolin-4-yl)piperidin-4-yl)methyl)piperazin-1-yl)-5-(ethyl(tetrahydro-2H-pyran-4-yl)amino)-4-methyl-[1,1′-biphenyl]-3-carboxamide]	–	20 to 30	30 to 40	–
CCN(c1cc(-c2ccc(N3CCC(N(C)Cc4ccc5c(c4)CN(N4CCC(=O)NC4=O)C5=O)CC3)cc2)cc(C(=O)NCc2c(C)cc(C)[nH]c2=O)c1C)C1CCOCC1 [GT-08512, N-((4,6-dimethyl-2-oxo-1,2-dihydropyridin-3-yl)methyl)-4′-(4-(((2-(2,4-dioxotetrahydropyrimidin-1(2H)-yl)-1-oxoisoindolin-5-yl)methyl)(methyl)amino)piperidin-1-yl)-5-(ethyl(tetrahydro-2H-pyran-4-yl)amino)-4-methyl-[1,1′-biphenyl]-3-carboxamide]	–	10 to 15	20 to 30	–
Cc1nc2c(F)cc(-c3nc(Nc4ccc(CN5CCN(CC6CCN(c7cccc8c7C(=O)N(N7CCC(=O)NC7=O)C8=O)CC6)CC5)cn4)ncc3F)cc2n1C(C)C [GT-06663, 2-(2,4-dioxotetrahydropyrimidin-1(2H)-yl)-4-(4-((4-((6-((5-fluoro-4-(4-fluoro-1-isopropyl-2-methyl-1H-benzo[d]imidazol-6-yl)pyrimidin-2-yl)amino)pyridin-3-yl)methyl)piperazin-1-yl)methyl)piperidin-1-yl)isoindoline-1,3-dione]	–	–	–	Inhibition Rate at 0.5 μM (%) ([2]; 0.5 μM): a2 (20% < a2 ≤ 30%); Inhibition Rate at 2 μM (%) ([2]; 2 μM): a5 (53% < a5 ≤ 60%); Degradation of substrate protein CDK6 (substrate protein remaining %) (CDK6): A (0%≤substrate protein remaining %≤80%); IC50 [3]: 400 to 800 nM; IC50 [4]: 10 to 50 nM; Degradation of substrate protein CDK4 (substrate protein remaining %) (CDK4): B (80%<substrate protein remaining %≤100%)
CCCc1cc(C)[nH]c(=O)c1CNC(=O)c1cc(-c2ccc(N3CCN(C(C)C)CC3)nc2)cc2c1cnn2C(C)C [UNC1999, reference compound]	–	0 to 5	0 to 5	–

Continued, in another order:

Degradation of substrate protein EGFR (substrate protein remaining %) (EGFR)	SMILES	inhibition at 0.01 µM [1] [%]	inhibition at 0.5 µM [1] [%]	other results
A (0%≤substrate protein remaining %≤80%)	COc1cc(N2CCC(N3CCN(CC4CCN(c5cccc6c5C(=O)N(N5CCC(=O)NC5=O)C6=O)CC4)CC3)CC2)c(C)cc1Nc1ncc(Br)c(Nc2ccc3nccnc3c2P(C)(C)=O)n1 [GT-05998, 4-(4-((4-(1-(4-((5-bromo-4-((5-(dimethylphosphoryl)quinoxalin-6-yl)amino)pyrimidin-2-yl)amino)-5-methoxy-2-methylphenyl)piperidin-4-yl)piperazin-1-yl)methyl)piperidin-1-yl)-2-(2,4-dioxotetrahydropyrimidin-1(2H)-yl)isoindoline-1,3-dione]	–	–	–
A (0%≤substrate protein remaining %≤80%)	CC(C)n1nc(N2CCC(N3CCN(Cc4ccc5c(c4)CN(N4CCC(=O)NC4=O)C5=O)CC3)CC2)c2cnc(Nc3ccnc(-c4cnn(S(=O)(=O)C5CC5)c4)n3)cc21 [GT-06077, 1-(5-((4-(1-(6-((2-(1-(cyclopropylsulfonyl)-1H-pyrazol-4-yl)pyrimidin-4-yl)amino)-1-isopropyl-1H-pyrazolo[4,3-c]pyridin-3-yl)piperidin-4-yl)piperazin-1-yl)methyl)-1-oxoisoindolin-2-yl)dihydropyrimidine-2,4 (1H,3H)-dione]	–	–	–
A (0%≤substrate protein remaining %≤80%)	COc1cc(N2CCC(N3CCN(Cc4ccc5c(c4)CN(N4CCC(=O)NC4=O)C5=O)CC3)CC2)c(C)cc1Nc1ncc(Br)c(Nc2ccc3nccnc3c2P(C)(C)=O)n1 [GT-05996, 1-(5-((4-(1-(4-((5-bromo-4-((5-(dimethylphosphoryl)quinoxalin-6-yl)amino)pyrimidin-2-yl)amino)-5-methoxy-2-methylphenyl)piperidin-4-yl)piperazin-1-yl)methyl)-1-oxoisoindolin-2-yl)dihydropyrimidine-2,4 (1H,3H)-dione]	–	–	–
A (0%≤substrate protein remaining %≤80%)	CC(C)n1nc(N2CCC(N(C)Cc3ccc4c(c3)CN(N3CCC(=O)NC3=O)C4=O)CC2)c2cnc(Nc3ccnc(-c4cnn(S(=O)(=O)C5CC5)c4)n3)cc21 [GT-06019, 1-(5-(((1-(6-((2-(1-(cyclopropylsulfonyl)-1H-pyrazol-4-yl)pyrimidin-4-yl)amino)-1-isopropyl-1H-pyrazolo[4,3-c]pyridin-3-yl)piperidin-4-yl)(methyl)amino)methyl)-1-oxoisoindolin-2-yl)dihydropyrimidine-2,4 (1H,3H)-dione]	–	–	–
